# Test results published in patent US20120010075A1 (priority 2009, published 2012).
# Like-named read-outs stand apart in the source and are kept apart here.
# Tests used:
# Phytophthora infestans = type: in vivo, Phytophthora infestans on tomato; conditions: applied 24 h before inoculation, assessed 7 days after inoculation
# [1] = tested on: Leptosphaeria nodorum (LEPTNO); assay: In vitro fungitoxicity of hydrazones with and without copper towards Leptosphaeria nodorum (Example 26); type: cell-based; conditions: 72 h at 25° C.; for inhibition of growth at 0.05 µg/mL: Parastagonospora nodorum, 72 h, copper-minus medium, read-out: LEPTNO % Inhn. Minus Copper Observed
# [2] = hydrazone 50 ppm with 50 μM CuCl2.2H2O, tomato late blight
# [3] = test compound Concn. 0.05 μg/mL
# [4] = copper-plus medium (CuCl2 10 μM), test compound Concn. 0.05 μg/mL
# [5] = hydrazone 50 ppm + 50 μM CuCl2.2H2O, tomato
# [6] = compound 0.05 μg/mL, copper-plus medium (CuCl2.2H2O)
Compound,melting point [°C],TLB % Control (Phytophthora infestans; [2]) [%],"inhibition of growth at 0.05 µg/mL [1, 3] [%]","LEPTNO % Inhn. Plus Copper Observed [1, 4] [%]",TLB % Control (Phytophthora infestans; [5]) [%],inhibition of growth at 0.05 µg/mL ([1]; compound 0.05 μg/mL) [%],"LEPTNO % Inhn. Plus Copper Observed [1, 6] [%]"
COc1ccc(C(=O)N/N=C(\C)c2cc(Cl)cc(Cl)c2O)c(O)c1 [Example 477],310 to 312,93.0,6.2,83.4,–,–,–
C/C(=N\NC(=O)c1ccccc1Br)c1ccc(Cl)cc1O [Example 462],187 to 188,86.0,0,95.0,–,–,–
COc1ccc(/C(C)=N/NC(=O)c2cccc(Cl)c2)c(O)c1 [Example 285],212 to 214,–,–,–,51.0,3.4,97.5
C/C(=N\NC(=O)c1ccc(Br)cc1)c1ccc(Cl)cc1O [Example 460],258 to 259,39.0,0,97.6,–,–,–
Cc1ccc(C(=O)N/N=C/c2ccc(Cl)cc2O)cc1 [Example 388],258 to 260,61.0,17.2,98.1,–,–,–
C/C(=N\NC(=O)c1cccc(C)c1)c1cccc([N+](=O)[O-])c1O [Example 270],235 to 239,–,–,–,61.0,6.9,98.6
C/C(=N\NC(=O)c1ccc(Br)cc1)c1ccccc1O [Example 458],218 to 221,46.0,3.7,96.6,–,–,–
Cc1ccc(C(=O)N/N=C/c2cc(C(F)(F)F)ccc2O)cc1 [Example 436],245 to 249,94.0,14.6,98.2,–,–,–
COc1ccc(/C(C)=N/NC(=O)c2ccccc2C)c(O)c1OC [Example 552],150 to 152,71.0,0,94.2,–,–,–
COc1ccc(C(=O)N/N=C(\C)c2cccc(OC)c2O)cc1 [Example 464],140 to 141,93.0,6.7,94.8,–,–,–
COc1ccc(C(=O)N/N=C(\C)c2cc(F)cc(F)c2O)cc1 [Example 579],243 to 247,97.0,0,97.6,–,–,–
C/C(=N\NC(=O)c1cccc(C)c1)c1cc(F)cc(F)c1O [Example 574],215 to 216,93.0,2.8,98.3,–,–,–
O=C(N/N=C/c1cc(Cl)ccc1O)c1ccccc1C(F)(F)F [Example 422],154 to 164,90.0,0,95.5,–,–,–
C/C(=N\NC(=O)c1ccc(C(F)(F)F)cc1)c1cc(Br)cc(Br)c1O [Example 548],255 to 257,98.0,6.7,97.5,–,–,–
C/C(=N\NC(=O)c1ccccc1Br)c1cc(C(F)(F)F)ccc1O [Example 537],192 to 200,90.0,12.2,96.2,–,–,–
Cc1ccc(C(=O)N/N=C/c2c(C(F)(F)F)ccc(Cl)c2O)c(O)c1 [Example 457],258 to 260,100.0,6.7,100.0,–,–,–
O=C(N/N=C/c1c(C(F)(F)F)ccc(Cl)c1O)c1cccc([N+](=O)[O-])c1 [Example 453],277 to 279,100.0,5.6,100.0,–,–,–

Compound,melting point [°C],TLB % Control (Phytophthora infestans; [2]) [%],"inhibition of growth at 0.05 µg/mL [1, 3] [%]","LEPTNO % Inhn. Plus Copper Observed [1, 4] [%]",TLB % Control (Phytophthora infestans; [5]) [%],inhibition of growth at 0.05 µg/mL ([1]; compound 0.05 μg/mL) [%],"LEPTNO % Inhn. Plus Copper Observed [1, 6] [%]"
O=C(N/N=C/c1cc(Cl)cc(Cl)c1O)c1cccc([N+](=O)[O-])c1 [Example 248],234 to 237,–,–,–,98.0,12.4,96.3
O=C(N/N=C/c1cc(Cl)cc(Br)c1O)c1cc(Cl)ccc1Cl [Example 196],169 to 173,–,–,–,94.5,4.4,97.7
O=C(N/N=C/c1ccc(Cl)cc1O)c1ccccc1C(F)(F)F [Example 396],197 to 200,49.0,0,95.5,–,–,–
N#Cc1cc(Br)c(O)c(/C=N/NC(=O)c2ccccc2)c1 [Example 306],290 to 291,35.0,0,95.2,–,–,–
O=C(N/N=C/c1cc(C(F)(F)F)cc(C(F)(F)F)c1O)c1ccc([N+](=O)[O-])cc1 [Example 339],244 to 247,100.0,1.5,95.4,–,–,–
C/C(=N\NC(=O)c1ccccc1)c1cc(C(F)(F)F)ccc1O [Example 527],226 to 229,78.0,7.6,97.6,–,–,–
O=C(N/N=C/c1c(C(F)(F)F)ccc(Cl)c1O)c1ccc([N+](=O)[O-])cc1 [Example 454],305 to 307,100.0,12.4,100.0,–,–,–
C/C(=N\NC(=O)c1ccccc1Cl)c1cc(Br)cc(Br)c1O [Example 543],207 to 209,100.0,1.3,93.9,–,–,–
C/C(=N\NC(=O)c1ccc(Cl)cc1)c1ccc(Cl)cc1O [Example 257],246 to 247,–,–,–,21.0,6,94.4
C/C(=N\NC(=O)c1ccc(C(F)(F)F)cc1)c1cccc([N+](=O)[O-])c1O [Example 523],267 to 278,92.0,7,97.7,–,–,–
C/C(=N\NC(=O)c1ccc(C(F)(F)F)cc1)c1cc(Br)ccc1O [Example 518],272 to 280,58.0,24.2,97.4,–,–,–
Cc1cc(C)cc(C(=O)N/N=C/c2ccccc2O)c1 [Example 167],203 to 205,–,–,–,67.3,0,95.8
O=C(N/N=C/c1cc(Cl)cc(Cl)c1O)c1cccc(OC(F)(F)F)c1 [Example 250],180 to 182,–,–,–,97.0,8.7,98.1
O=C(N/N=C/c1cc(C(F)(F)F)cc(C(F)(F)F)c1O)c1cccc(Cl)c1 [Example 336],230 to 233,98.0,16.6,97.8,–,–,–
O=C(N/N=C/c1ccc(Cl)cc1O)c1cccc(F)c1 [Example 389],218 to 222,95.0,7.7,97.6,–,–,–
Cc1cccc(C(=O)N/N=C/c2cc(Cl)ccc2O)c1 [Example 419],188 to 196,90.0,3.2,94.9,–,–,–
